Results reported in publication PMC11370357 (bioRxiv, 2024).

Target: T1, GPRC6A (Homo sapiens, UniProt Q5T6X5)
T1 sequence (Q5T6X5 19-926): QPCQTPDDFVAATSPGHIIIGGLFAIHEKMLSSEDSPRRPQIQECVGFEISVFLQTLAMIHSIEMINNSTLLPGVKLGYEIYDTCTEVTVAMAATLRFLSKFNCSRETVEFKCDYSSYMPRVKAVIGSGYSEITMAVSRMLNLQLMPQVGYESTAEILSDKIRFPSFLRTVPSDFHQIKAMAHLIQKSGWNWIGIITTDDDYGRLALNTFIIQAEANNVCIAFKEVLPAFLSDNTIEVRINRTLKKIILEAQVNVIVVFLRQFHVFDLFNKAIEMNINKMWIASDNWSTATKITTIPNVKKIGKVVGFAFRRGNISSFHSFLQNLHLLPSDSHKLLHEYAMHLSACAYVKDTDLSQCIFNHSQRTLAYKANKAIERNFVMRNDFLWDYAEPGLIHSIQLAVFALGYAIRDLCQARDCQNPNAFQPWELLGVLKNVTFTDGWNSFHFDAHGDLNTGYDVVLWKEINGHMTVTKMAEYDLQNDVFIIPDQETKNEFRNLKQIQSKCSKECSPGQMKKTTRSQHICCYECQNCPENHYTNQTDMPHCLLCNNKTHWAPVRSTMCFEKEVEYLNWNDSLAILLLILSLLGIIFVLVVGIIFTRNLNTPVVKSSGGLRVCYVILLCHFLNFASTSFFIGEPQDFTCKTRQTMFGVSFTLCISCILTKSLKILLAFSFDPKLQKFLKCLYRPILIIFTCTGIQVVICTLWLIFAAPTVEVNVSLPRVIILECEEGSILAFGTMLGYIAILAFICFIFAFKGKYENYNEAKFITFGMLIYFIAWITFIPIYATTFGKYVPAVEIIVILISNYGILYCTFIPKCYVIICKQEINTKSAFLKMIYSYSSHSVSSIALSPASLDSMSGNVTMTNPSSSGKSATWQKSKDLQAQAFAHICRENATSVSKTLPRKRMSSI
Type: cell-based

EC50: 284 µM
Structure (SMILES): CN(C)C(=N)N=C(N)N [metformin, 1,1-dimethylbiguanide]
